Results published in patent US5055484A, “7(1H-pyrrol-3-YL)-substituted 3,5-dihydroxyhept-6-enoic acids, 7-(1H-pyrrol-3-YL)-substituted 3,5-dihyroxyhept-anoic acids, their corresponding delta-lactones and salts, their use as medicaments and pharmaceutical products and intermediates” (Hoechst Aktiengesellschaft, priority 1987, dated 1991).
pIC50: −log10 of the molar value.

Assays:
HMG--CoA reductase = biological target: T1, HMG--CoA reductase (Rattus norvegicus, UniProt P51639); assay: inhibition of HMG-CoA reductase activity on solubilized enzyme preparations from rat liver microsomes; format: biochemical
T1 sequence (P51639 1-887): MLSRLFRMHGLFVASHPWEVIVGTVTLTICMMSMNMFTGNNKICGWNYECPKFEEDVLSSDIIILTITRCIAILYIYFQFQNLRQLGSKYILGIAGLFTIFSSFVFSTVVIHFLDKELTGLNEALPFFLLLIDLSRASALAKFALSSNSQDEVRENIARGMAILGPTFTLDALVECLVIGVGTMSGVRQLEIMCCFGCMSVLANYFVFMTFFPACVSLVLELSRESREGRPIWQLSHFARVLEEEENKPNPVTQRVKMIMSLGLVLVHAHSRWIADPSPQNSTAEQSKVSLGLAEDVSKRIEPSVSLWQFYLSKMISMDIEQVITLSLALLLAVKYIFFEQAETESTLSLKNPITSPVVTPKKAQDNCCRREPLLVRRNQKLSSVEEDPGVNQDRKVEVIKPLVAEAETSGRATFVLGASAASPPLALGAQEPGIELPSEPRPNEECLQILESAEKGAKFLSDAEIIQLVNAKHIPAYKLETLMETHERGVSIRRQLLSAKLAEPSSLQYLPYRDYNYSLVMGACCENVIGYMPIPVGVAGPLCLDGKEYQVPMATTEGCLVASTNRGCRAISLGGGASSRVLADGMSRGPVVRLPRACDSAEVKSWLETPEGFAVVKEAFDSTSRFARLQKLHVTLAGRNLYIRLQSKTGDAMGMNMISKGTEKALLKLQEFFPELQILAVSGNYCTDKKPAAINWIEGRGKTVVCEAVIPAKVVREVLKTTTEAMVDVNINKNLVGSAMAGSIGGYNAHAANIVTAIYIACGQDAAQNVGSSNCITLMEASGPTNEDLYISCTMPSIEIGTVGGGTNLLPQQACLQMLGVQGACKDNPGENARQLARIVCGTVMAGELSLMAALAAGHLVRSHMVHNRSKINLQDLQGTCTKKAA
Protocol: The inhibition of HMG--CoA reductase activity by the compounds of the general formulae I and II was determined on solubilized enzyme preparations from rat liver microsomes.
After a changeover in the day/night rhythm of the rats, enzyme production was induced with cholestyramine (®Cuemid) The substrate used was (S,R) ^14 C--HMG--CoA, and the concentration of NADPH was maintained by a regenerating system during the incubation. ^14 C-mevalonate was removed from substrate and other products (for example ^14 C--HMG) by column elution, with the elution profile of each individual sample being determined. Inclusion of ^3 H-mevalonate throughout was dispensed with because the data to be determined were of the relative inhibitory effect. In each test series the enzyme-free control, the enzyme-containing normal mixture (=100%) and those with added products were treated together. Each individual value was formed as the mean of 3 parallel samples. The t test was used to assess the significance of the differences between the means for product-free and productcontaining samples.

cholesterol biosynthesis = assay: inhibition of cholesterol biosynthesis by incorporation of 14C-acetate into cholesterol in HEP G2 cell cultures; format: cell-based; details: for % potency relative to mevinolin sodium at IC70: comparison of IC70 with mevinolin sodium salt (internal standard)
Protocol: In addition, the inhibition of cholesterol biosynthesis by selected compounds was tested by the incorporation of ^14 C-precursor in cholesterol in cell cultures.
Monolayers of HEP G2 cells in lipoprotein-free nutrient medium were preincubated with various concentrations of the test substances for 1 hour. The ^14 C-labeled precursor sodium ^14 C-acetate was added, and the incubation was then continued for 3 hours. Subsequently 3H-cholesterol was added as internal standard, and a portion of these cells underwent alkaline hydrolysis. The lipids from the hydrolyzed cells were extracted with chloroform/methanol. Carrier cholesterol was added to this lipid mixture which was then subjected to preparative thin-layer chromatography, the cholesterol band was visualized with iodine vapor and then isolated, and the amount of ^14 C-cholesterol formed from the ^14 C-precursor was determined by scintigraphy. Cellular protein was determined in an aliquot of the cells, so that the amount of ^14 C-cholesterol formed from ^14 C-precursor in unit time per mg of cellular protein can be calculated. The solvent control is used for comparison of the inhibitory effect of an added test product, so that it is possible to state directly the inhibition of cholesterol biosynthesis at a particular molar concentration of the test product in the medium. The integrity of the cell culture and the absence of cell damage due to exposure to the products was checked morphologically (light microscope) in an aliquot of the cell cultures. […] The relative potency was determined by comparing the IC70 values and IC50 values for the test compound and for mevinolin sodium salt (internal standard).

[1] = HEP G2 cells, 1 h preincubation, 3 h with 14C-acetate

SMILES | pIC50 (HMG--CoA reductase) | also measured
Cc1c(CC[C@@H](O)C[C@@H](O)CC(=O)[O-])c(-c2ccc(F)cc2)c(C)n1-c1ccccc1.[Na+] (racemic) [Example 4, Sodium 3(RS),5(RS)-dihydroxy-7-[1-phenyl-2,5-dimethyl-4-(4-fluorophenyl)-1H-pyrrol-3-yl]heptanoate] | 8.06 | % potency relative to mevinolin sodium at IC50 (cholesterol biosynthesis; HEP G2 cells, 1 h preincubation, 3 h with 14C-acetate, comparison of IC50 with mevinolin sodium salt (internal standard)): 450%; % potency relative to mevinolin sodium at IC70 (cholesterol biosynthesis; [1]): 51%
COC(=O)C[C@H](O)C[C@H](O)CCc1c(-c2ccc(F)cc2)c(C)n(-c2ccccc2)c1C(C)C (racemic) [Example 7, Methyl 3(RS),5(RS)-dihydroxy-7-[1-phenyl-2-isopropyl-4-(4-fluorophenyl)-5-methyl-1H-pyrrol-3-yl]heptanoate] | 8.10 | 
Cc1c(-c2ccc(F)cc2)c(CC[C@@H](O)C[C@@H](O)CC(=O)O)c(C(C)C)n1-c1ccccc1 (racemic) [Example 8, Sodium 3(RS),5(RS)-dihydroxy-7-[1-phenyl-2-isopropyl-4-(4-fluorophenyl)-5-methyl-1H-pyrrol-3-yl]heptanoate] | 8.60 | 
CC(C)c1c(CC[C@@H](O)C[C@@H](O)CC(=O)[O-])c(-c2ccc(F)cc2)cn1-c1ccccc1.[Na+] (racemic) [Example 14, Sodium 3(RS),5(RS)-dihydroxy-7-[1-phenyl-2-isopropyl-4-(4-fluorophenyl)-1H-pyrrol-3-yl]heptanoate] | 8.52 | % potency relative to mevinolin sodium at IC70 (cholesterol biosynthesis; [1]): 150%
COC(=O)C[C@H](O)C[C@H](O)CCc1c(-c2ccc(F)cc2)cn(C(C)C)c1C (racemic) [Example 17, Methyl 3(RS),5(RS)-dihydroxy-7-[1-isopropyl-2-methyl-4-(4-fluorophenyl)-1H-pyrrol-3-yl]heptanoate] | 7.00 | 
Cc1c(CC[C@@H](O)C[C@@H](O)CC(=O)O)c(-c2ccc(F)cc2)cn1C(C)C (racemic) [Example 18, Sodium 3(RS),5(RS)-dihydroxy-7-[1-isopropyl-2-methyl-4-(4-fluorophenyl)-1H-pyrrol-3-yl]heptanoate] | 7.30 | 
COC(=O)C[C@H](O)C[C@H](O)/C=C/c1c(-c2ccc(F)cc2)c(C)n(-c2ccccc2)c1C(C)C (relative stereo) [Example 5, Methyl 3(RS),5(SR)-dihydroxy-7-[1-phenyl-2-isopropyl-4-(4-fluorophenyl)-5-methyl-1H-pyrrol-3-yl]hept-6(E)-enoate] | 8.15 | 
CC[C@H](C)C(=O)O[C@H]1C[C@@H](C)C=C2C=C[C@H](C)[C@H](CC[C@@H](O)C[C@@H](O)CC(=O)O)[C@H]21 [mevinolin sodium, reference compound] |  | IC70 (cholesterol biosynthesis; Homo sapiens, HepG2): 150 nM; pIC50 (cholesterol biosynthesis; Homo sapiens, HepG2, HEP G2 cells, mean figure, varies somewhat from cell culture to cell culture): 7.30

Further compounds by rising pIC50 (HMG--CoA reductase), results first:

pIC50 (HMG--CoA reductase) | SMILES | also measured
6.49 | COC(=O)C[C@H](O)C[C@H](O)/C=C/c1c(-c2ccc(F)cc2)c(C)n(-c2ccccc2)c1C (relative stereo) [Example 1, methyl 3(RS),5(SR)-dihydroxy-7-[1-phenyl-2,5-dimethyl-4-(4-fluorophenyl)-1H-pyrrol-3-yl]hept-6(E)-enoate] | % potency relative to mevinolin sodium at IC70 (cholesterol biosynthesis; [1]): 180%
6.80 | Cc1c(/C=C/[C@@H](O)C[C@@H](O)CC(=O)O)c(-c2ccc(F)cc2)cn1C(C)C (relative stereo) [Example 16, Sodium 3(RS),5(SR)-dihydroxy-7-[1-isopropyl-2-methyl-4-(4-fluorophenyl)-1H-pyrrol-3-yl]hept-6(E)-enoate] | 
6.92 | Cc1c(/C=C/[C@@H](O)C[C@@H](O)CC(=O)O)c(-c2ccc(F)cc2)c(C)n1-c1ccccc1 (relative stereo) [Example 2, Sodium 3(RS),5(SR)-dihydroxy-7-[1-phenyl-2,5-dimethyl-4-(4-fluorophenyl)-1H-pyrrol-3-yl]hept-6(E)-enoate] | 
6.92 | COC(=O)C[C@H](O)C[C@H](O)/C=C/c1c(-c2ccc(F)cc2)cn(-c2ccccc2)c1C (relative stereo) [Example 9, methyl 3(RS),5(SR)-dihydroxy-7-[1-phenyl-2-methyl-4-(4-fluorophenyl)-1H-pyrrol-3-yl]hept-6(E)-enoate] | 
7.10 | COC(=O)C[C@H](O)C[C@H](O)CCc1c(-c2ccc(F)cc2)c(C)n(-c2ccccc2)c1C (racemic) [Example 3, Methyl 3(RS),5(RS)-dihydroxy-7-[1-phenyl-2,5-dimethyl-4-(4-fluorophenyl)-1H-pyrrol-3-yl]heptanoate] | 
7.15 | COC(=O)C[C@H](O)C[C@H](O)/C=C/c1c(-c2ccc(F)cc2)cn(C(C)C)c1C (relative stereo) [Example 15, methyl 3(RS),5(SR)-dihydroxy-7-[1-isopropyl-2-methyl-4-(4-fluorophenyl)-1H-pyrrol-3-yl]hept-6(E)-enoate] | 
7.82 | COC(=O)C[C@H](O)C[C@H](O)CCc1c(-c2ccc(F)cc2)cn(-c2ccccc2)c1C(C)C (racemic) [Example 13, Methyl 3(RS),5(RS)-dihydroxy-7-[1-phenyl-2-isopropyl-4(4-fluorophenyl)-1H-pyrrol-3-yl]heptanoate] | 
7.92 | CC(C)c1c(/C=C/[C@@H](O)C[C@@H](O)CC(=O)O)c(-c2ccc(F)cc2)cn1C1CCCCC1 (relative stereo) [Example 20, Sodium 3(RS),5(SR)-dihydroxy-7-[1-cyclohexyl-2-isopropyl-4(4-fluorophenyl)-1H-pyrrol-3-yl]hept-6(E)-enoate] | 
8.10 | COC(=O)C[C@H](O)C[C@H](O)/C=C/c1c(-c2ccc(F)cc2)cn(-c2ccccc2)c1C(C)C (relative stereo) [Example 11, methyl 3(RS),5(SR)-dihydroxy-7-[1-phenyl-2-isopropyl-4-(4-fluorophenyl)-1H-pyrrol-3-yl]hept-6(E)-enoate] | 
8.52 | CC(C)c1c(CC[C@@H](O)C[C@@H](O)CC(=O)O)c(-c2ccc(F)cc2)cn1C(C)C (racemic) [Example 26, Sodium 3(RS),5(RS)-dihydroxy-7-[1,2-diisopropyl-4-(4-fluorophenyl)-1H-pyrrol-3-yl]heptanoate] | 
